Reference: PMC6273012, “New Iridoid Glucosides from Caryopteris incana (Thunb.) Miq. and Their α-Glucosidase Inhibitory Activities” (Molecules, 2016)
“Also recorded” adds a separate entry of the source.

Biological target: α-glucosidase from Saccharomyces cerevisiae (Saccharomyces cerevisiae, UniProt P53341)
Test: α-glucosidase inhibition assay (pNPG substrate)
Type: biochemical
Details: yeast α-glucosidase; acarbose as positive control
Procedure: The α-glucosidase inhibition assay was performed according to a slightly modified, previously reported method; α-Glucosidase (0.1 U/mL) was dissolved in potassium phosphate buffer (pH 6.8) as the enzyme solution. The tested compounds (50 μL, 5 mM) dissolved in potassium phosphate buffer containing 3% DMSO were mixed with 50 μL of enzyme solution. After incubation at 37 °C for 10 min, a p-nitrophenyl-α-glucopyranoside (pNPG) solution (100 μL) (5.0 mM pNPG in 0.1 M potassium phosphate buffer (pH 6.8)) was added. The enzymatic reaction proceeded at 37 °C for 20 min and was terminated by the addition of 100 μL of 0.2 M Na2CO3. 4-nitrophenol absorption was immediately measured at 405 nm by using a microplate reader. The experiments were performed in triplicate.

α-glucosidase from Saccharomyces cerevisiae, sequence (P53341 whole entry): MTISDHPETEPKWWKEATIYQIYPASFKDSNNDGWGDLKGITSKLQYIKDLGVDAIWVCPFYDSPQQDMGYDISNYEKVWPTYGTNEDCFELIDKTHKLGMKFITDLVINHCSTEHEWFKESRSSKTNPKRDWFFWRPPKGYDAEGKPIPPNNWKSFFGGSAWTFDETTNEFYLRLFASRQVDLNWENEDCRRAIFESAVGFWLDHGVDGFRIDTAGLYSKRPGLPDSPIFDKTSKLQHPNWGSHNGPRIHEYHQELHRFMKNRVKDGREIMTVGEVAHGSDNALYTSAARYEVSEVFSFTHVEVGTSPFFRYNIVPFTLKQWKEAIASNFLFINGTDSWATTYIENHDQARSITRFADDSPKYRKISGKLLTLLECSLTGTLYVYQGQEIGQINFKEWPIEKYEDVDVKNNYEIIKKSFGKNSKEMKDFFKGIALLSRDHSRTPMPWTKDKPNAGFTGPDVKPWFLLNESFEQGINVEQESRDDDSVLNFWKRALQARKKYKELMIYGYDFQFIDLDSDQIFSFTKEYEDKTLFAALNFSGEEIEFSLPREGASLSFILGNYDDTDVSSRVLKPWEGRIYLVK

Row | SMILES | α-glucosidase inhibitory effect (in words)
1 | CC(=O)O[C@@]1(C)C[C@@H](OC(=O)C2=CO[C@@H](O[C@@H]3O[C@H](CO)[C@@H](O)[C@H](O)[C@H]3OC(=O)/C=C\c3ccc(O)cc3)[C@@H]3[C@H](C)CC[C@H]23)[C@@H]2C=CO[C@@H](O[C@@H]3O[C@H](CO)[C@@H](O)[C@H](O)[C@H]3O)[C@@H]21 [Compound 4, 2′′′-O-(Z)-p-coumaroyl caryocanoside B] | stronger inhibitory effects against α-glucosidase than the positive control; also recorded: potent effect
2 | CC(CO)c1cc2c(c(O)c1O[C@@H]1O[C@H](CO)[C@@H](O)[C@H](O)[C@H]1O)[C@@]1(C)CCC[C@](C)(CO[C@@H]3O[C@H](CO)[C@@H](O)[C@H](O)[C@H]3O)[C@@H]1CC2 (some centres unmarked) [Compound 10, ajugaside A] | stronger inhibitory effects against α-glucosidase than the positive control
